Measurements taken from patent US9428753B2, “Use of LXR antagonists for treatment of side effects of elevated glucocorticoid levels” (The Governing Council of the University of Toronto, priority 2013, dated 2016).
“Also recorded” adds a separate entry of the source.

How the values were obtained:
[1] = test system: mouse primary hepatocytes; assay: Glucose production (glucose output) in mouse primary hepatocytes; assay type: cell-based
Method: (§1) T09 treatment was used as a positive control for LXR activity. (D) Glucose output over 24 hrs from LXRα−/− and LXRβ−/− mouse primary hepatocytes following Dex 100 nM±10 μM GSK2033 treatment. (E) Glucose output over 8 hrs from WT hepatocytes following Dex 500 nM±10 μM GSK2033 treatments. Data represent the Avg±SD, N=3. *P<0.05 by One way ANOVA, Student Newman Keuls. Legend: V=vehicle, G=GSK2033 (LXR antagonist); D=dexamethasone (GR agonist); and T09=T0901317 (LXR agonist).
While not wishing to be limited by theory, subsequent to conducting these initial studies it was realized that 24 hour incubation of hepatocytes in gluconeogenic media may be too long. In the literature, for this type of assay, primary heptocytes are usually incubated up to 12 hours. As such, for subsequent studies of the present application, WT cells were treated with 500 nM Dex for 8 hours to be able to measure detectable levels of glucose in the media.

LXRα = target: T1, LXRα (Homo sapiens, UniProt Q13133); assay: cell-based
T1 sequence (Q13133 209-447 limits assumed): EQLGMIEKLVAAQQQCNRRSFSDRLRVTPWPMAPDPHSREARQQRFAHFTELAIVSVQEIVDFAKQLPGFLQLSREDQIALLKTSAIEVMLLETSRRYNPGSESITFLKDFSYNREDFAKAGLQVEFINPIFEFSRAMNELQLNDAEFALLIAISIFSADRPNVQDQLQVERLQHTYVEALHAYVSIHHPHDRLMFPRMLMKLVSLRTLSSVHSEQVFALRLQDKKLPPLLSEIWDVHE

GR = target: T2, GR (Homo sapiens, UniProt P04150); assay: GAL4-GR / UAS-luc transfection assay in mouse primary hepatocytes; assay type: cell-based; design: co-transfecting UAS-reporter and GAL4-LBD of the nuclear receptors LXRα, LXRβ and GR; GAL4 (fusion partner); expressed in transfected cells; host or cells: mouse primary hepatocytes; details: GAL4-GR activated with 100 nM Dex
T2 sequence (P04150 524-758 limits assumed): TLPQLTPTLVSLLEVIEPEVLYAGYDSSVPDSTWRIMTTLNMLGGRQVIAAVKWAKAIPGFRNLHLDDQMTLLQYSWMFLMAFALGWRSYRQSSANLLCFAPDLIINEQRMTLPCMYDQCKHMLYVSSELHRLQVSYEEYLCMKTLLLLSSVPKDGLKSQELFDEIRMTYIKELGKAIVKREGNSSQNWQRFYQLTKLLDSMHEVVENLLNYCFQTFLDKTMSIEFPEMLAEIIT
Excerpt: (§2) RLU=relative luciferase units.

Pepck = Pepck gene expression in mouse primary hepatocytes; assay type: cell-based
LXRβ = target: T3, LXRβ (Homo sapiens, UniProt P55055); assay: GAL4-LXRβ / UAS-luc co-transfection reporter assay in HEK293 cells; assay type: cell-based; design: co-transfecting UAS-reporter and GAL4-LBD of the nuclear receptors LXRα, LXRβ and GR; GAL4 (fusion partner); expressed in transfected cells; host or cells: HEK293 cells; mouse primary hepatocytes
T3 sequence (P55055 222-460 limits assumed): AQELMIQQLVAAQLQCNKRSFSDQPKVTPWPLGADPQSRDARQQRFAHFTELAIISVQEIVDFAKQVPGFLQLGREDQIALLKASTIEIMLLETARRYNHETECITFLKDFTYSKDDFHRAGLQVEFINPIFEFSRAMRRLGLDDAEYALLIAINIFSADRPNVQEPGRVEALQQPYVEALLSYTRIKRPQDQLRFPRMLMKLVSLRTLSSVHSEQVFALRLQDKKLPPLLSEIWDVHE
Method: as §2, §2
Further experiments were then carried out to determine the inhibitory potencies for the individual LXR isoforms in HEK 293 cells by co-transfecting UAS-reporter and GAL4-LBD of the nuclear receptors LXRα, LXRβ and GR and then treating with 8 different concentrations of GSK2033. To assess suppression of ligand activated receptors, the transfected cells were co-treated with increasing doses of GSK2033, in addition to T09091317 or Dex (dexamethasone) (at EC80 of LXR isoforms and GR, respectively).
A number of experiments were carried out to determine the relative inhibitory potencies of GSK2033, Amgen 54 and DMHCl for the individual LXR isoforms in HEK 293 cells by co-transfecting UAS-reporter and GAL4-LBD of the nuclear receptors LXRα, LXRβ and GR and then treating with 6 different concentrations of GSK2033, Amgen 54 and DMHCl.

[2] = test system: tyrosine aminotransferase (TAT); assay: TAT gene expression in mouse primary hepatocytes; assay type: cell-based; details: WT, LXRα−/− and LXRβ−/− hepatocytes; 100 nM Dex + 10 μM GSK2033
Method: as §1, with “Data represent the Avg±SD, N=3. *P<0.05 by One way ANOVA, Student Newman Keuls.” left out

With `Cc1cc(C)c(S(=O)(=O)N(Cc2ccc(-c3cccc(S(C)(=O)=O)c3)cc2)Cc2ccc(C(F)(F)F)o2)c(C)c1` [GSK2033, 2,4,6-trimethyl-N-((3′-(methylsulfonyl)-[1,1′-biphenyl]-4-yl)methyl)-N-((5-(trifluoromethyl)furan-2-yl)methyl)benzenesulfonamide] the “glucose secretion (glucose output)” value ([1]; LXRα−/− hepatocytes, 100 nM Dex + 10 μM GSK2033, 24 hours) was 1.2 fold, the “glucose secretion (glucose output)” value ([1]; WT hepatocytes, 500 nM Dex + 10 μM GSK2033, 8 hours) was 1.25 fold and the IC50 (LXRα) was 660 nM. For the same compound, the GR activity (GR) was “unaffected; also recorded: did not antagonize”, the Pepck expression (Pepck; Example 3, LXRα−/− hepatocytes, 100 nM Dex + 10 μM GSK2033) was 3.2 fold and the Pepck expression (Pepck; Example 3, LXRβ−/− hepatocytes, 100 nM Dex + 10 μM GSK2033) was “remained unchanged”. It also gave a Pepck expression (Pepck; Example 3, WT hepatocytes, 100 nM Dex + 10 μM GSK2033) of 1.9 fold, a Pepck expression (Pepck; Example 6, LXRα−/− hepatocytes, 100 nM Dex + 10 μM GSK2033) of 0.8 fold and a Pepck expression (Pepck; Example 6, LXRα−/− hepatocytes, 10 μM Cortisol + 10 μM GSK2033) of 1.7 fold. For the same compound, the Pepck expression (Pepck; Example 6, LXRα−/− hepatocytes, 10 μM Prednisone + 10 μM GSK2033) was 1.24 fold, the Pepck expression (Pepck; Example 6, LXRα−/− hepatocytes, 10 μM Triamcinolone acetonide + 10 μM GSK2033) was 0.6 fold and the Pepck expression (Pepck; Example 8, LXRα−/− hepatocytes, 100 nM Dex + 10 μM LXR antagonist) was 2.7 fold. The IC50 (LXRβ; IC50 against LXRβ, Example 1, T0901317 at EC80 (100 nM), 8 concentrations) was 37 nM, the IC50 (LXRβ; IC50 to inhibit LXRβ, Example 7, T0901317 100 nM, 6 concentrations) was 6.44 nM and the “basal repression of LXRβ” value (LXRβ; preliminary experiment, 3 doses) was “basal repression”. The “Dex induction of TAT under GSK2033 co-treatment” value [2] was “not altered”.
